Literature values as cited in patent EP4374853A1, “SOLID FORMULATION OF ENZALUTAMIDE” (Lotus Pharmaceutical Co., Ltd., priority 2022, dated 2024).

What was measured:
[1] = between pH 1-11

Structure (SMILES): CNC(=O)c1ccc(N2C(=S)N(c3ccc(C#N)c(C(F)(F)F)c3)C(=O)C2(C)C)cc1F [Enzalutamide, 4-{3-[4-cyano-3-(trifluoromethyl)phenyl]-5,5-dimethyl-4-oxo-2-sulfanylideneimiidazolidin-1-yl}-2-fluoro-N-methylbenzymide]
- Solubility in aqueous media [1]: practically insoluble
- Permeability: high permeability
